# In ChEMBL document CHEMBL1136093, “A four component coupling strategy for the synthesis of D-phenylglycinamide-derived non-covalent factor Xa inhibitors” (Bioorg Med Chem Lett, 2003):
# Key:
# Homo sapiens = species: Homo sapiens; test: Concentration required to double the time of clot formation in reconstituted human plasma, using prothrombin time assay; type: functional, organism-based
# [1] = target: Coagulation factor X (Homo sapiens) (UniProt P00742); test: Binding ability to coagulation factor Xa, expressed as apparent association constant
# Coagulation factor X (Homo sapiens), sequence (P00742 41-179 limits assumed): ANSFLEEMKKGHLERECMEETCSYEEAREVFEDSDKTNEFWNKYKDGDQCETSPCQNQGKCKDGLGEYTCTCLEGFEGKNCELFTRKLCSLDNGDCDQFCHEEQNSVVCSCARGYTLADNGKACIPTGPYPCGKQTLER
# Coagulation factor X (Homo sapiens), sequence (P00742 235-488 limits assumed): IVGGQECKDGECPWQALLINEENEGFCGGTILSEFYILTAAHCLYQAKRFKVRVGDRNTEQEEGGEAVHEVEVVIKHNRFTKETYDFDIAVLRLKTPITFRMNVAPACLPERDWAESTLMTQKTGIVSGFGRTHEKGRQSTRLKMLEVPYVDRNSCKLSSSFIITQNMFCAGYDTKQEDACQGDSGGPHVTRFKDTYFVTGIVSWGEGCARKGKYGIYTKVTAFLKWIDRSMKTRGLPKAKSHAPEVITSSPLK
K ass [1],Compound,Concentration (Homo sapiens) [µM]
4.6e+06 l M-1,COc1ccc(C(=O)NC(C(=O)NCC2CCN(C(C)C)CC2)c2ccccc2Br)cc1 (stereo not drawn),
750000 l M-1,COc1ccc(C(=O)NC(C(=O)NCC2CCN(C(C)C)CC2)c2ccccc2N)cc1 (stereo not drawn),
2.9e+06 l M-1,COc1ccc(C(=O)NC(C(=O)NCC2CCN(C(C)C)CC2)c2ccccc2SC)cc1 (stereo not drawn),
2e+06 l M-1,COc1ccc(C(=O)NC(C(=O)NCC2CCN(C(C)C)CC2)c2ccccc2F)cc1 (stereo not drawn),
1.1e+06 l M-1,COc1ccc(C(=O)NC(C(=O)NCC2CCN(C(C)C)CC2)c2ccccc2N(C)C)cc1 (stereo not drawn),
2.8e+06 l M-1,CCOc1ccccc1C(NC(=O)c1ccc(OC)cc1)C(=O)NCC1CCN(C(C)C)CC1 (stereo not drawn),
2.5e+06 l M-1,COc1ccc(C(=O)NC(C(=O)NCC2CCN(C(C)C)CC2)c2ccccc2C)cc1 (stereo not drawn),
1.9e+06 l M-1,COc1ccc(C(=O)NC(C(=O)NCC2CCN(C(C)C)CC2)c2ccccc2OC)cc1 (stereo not drawn),
5.1e+06 l M-1,COc1ccc(C(=O)NC(C(=O)NCC2CCN(C(C)C)CC2)c2ccccc2Cl)cc1 (stereo not drawn),
1.3e+06 l M-1,COc1ccc(C(=O)NC(C(=O)NCC2CCN(C(C)C)CC2)c2ccccc2O)cc1 (stereo not drawn),
4.1e+06 l M-1,COc1ccc(C(=O)NC(C(=O)NCC2CCN(C(C)C)CC2)c2ccccc2I)cc1 (stereo not drawn),

# More lines, now with the values behind:
Compound,K ass [1],Concentration (Homo sapiens) [µM]
O=C(NC(C(=O)NCC1CCN(C2CCCC2)CC1)c1ccc2ccccc2c1)c1ccc2c(Cl)c[nH]c2c1 (stereo not drawn),7.9e+07 l M-1,4.1
O=C(NC(C(=O)NCC1CCN(C2CCCC2)CC1)c1nccs1)c1ccc2c(Cl)c[nH]c2c1 (stereo not drawn),3.8e+08 l M-1,0.79
O=C(NC(C(=O)NCC1CCN(C2CCCC2)CC1)c1cnc2ccccc2c1)c1ccc2c(Cl)c[nH]c2c1 (stereo not drawn),200000 l M-1,
O=C(NC(C(=O)NCC1CCN(C2CCCC2)CC1)c1cccc2ccccc12)c1ccc2c(Cl)c[nH]c2c1 (stereo not drawn),2.5e+08 l M-1,3.8
COc1ccc(C(=O)NC(C(=O)NCC2CCN(C(C)C)CC2)c2ccccc2[N+](=O)[O-])cc1 (stereo not drawn),4.2e+06 l M-1,
COc1ccc(C(=O)NC(C(=O)NCC2CCN(C(C)C)CC2)c2ccccc2OC(F)(F)F)cc1 (stereo not drawn),4.1e+06 l M-1,
COc1ccc(C(=O)NC(C(=O)NCC2CCN(C(C)C)CC2)c2ccccc2OCc2ccccc2)cc1 (stereo not drawn),2.6e+06 l M-1,
COc1ccc(C(=O)NC(C(=O)NCC2CCN(C(C)C)CC2)c2ncc[nH]2)cc1 (stereo not drawn),210000 l M-1,
COc1ccc(C(=O)NC(C(=O)NCC2CCN(C(C)C)CC2)c2cnc3ccccc3c2)cc1 (stereo not drawn),50000 l M-1,
COc1ccc(C(=O)NC(C(=O)NCC2CCN(C(C)C)CC2)c2cccs2)cc1 (stereo not drawn),1.1e+06 l M-1,
COc1ccc(C(=O)NC(C(=O)NCC2CCN(C(C)C)CC2)c2ccccc2C(F)(F)F)cc1 (stereo not drawn),3.1e+06 l M-1,
COc1ccc(C(=O)NC(C(=O)NCC2CCN(C(C)C)CC2)c2ccnc3ccccc23)cc1 (stereo not drawn),1.3e+06 l M-1,
COc1ccc(C(=O)NC(C(=O)NCC2CCN(C(C)C)CC2)c2ccccc2SC(C)(C)C)cc1 (stereo not drawn),1.7e+06 l M-1,
COc1ccc(C(=O)NC(C(=O)NCC2CCN(C(C)C)CC2)c2ccccc2Oc2ccccc2)cc1 (stereo not drawn),1.3e+06 l M-1,
COc1ccc(C(=O)NC(C(=O)NCC2CCN(C(C)C)CC2)c2ccccc2)cc1 (stereo not drawn),710000 l M-1,
O=C(N[C@@H](C(=O)NCC1CCN(C2CCCC2)CC1)c1ccccc1)c1ccc2c(Cl)c[nH]c2c1,8.2e+08 l M-1,
COc1ccc(C(=O)NC(C(=O)NCC2CCN(C(C)C)CC2)c2ccco2)cc1 (stereo not drawn),360000 l M-1,
COc1ccc(C(=O)NC(C(=O)NCC2CCN(C(C)C)CC2)c2ccoc2)cc1 (stereo not drawn),200000 l M-1,
COc1ccc(C(=O)NC(C(=O)NCC2CCN(C(C)C)CC2)c2ccsc2)cc1 (stereo not drawn),880000 l M-1,
